The text below walks through data of patent US11623919B2, “Heterocyclic P2X7 antagonists” (AXXAM S.P.A., priority 2017, dated 2023).

Holding throughout (test): Screen Quest Fluo-8 No Wash Calcium Assay (Bz-ATP evoked Ca2+ influx, FLIPR)
Holding throughout (format): cell-based

Test [1] addresses T1, P2X7 receptor (Mus musculus, UniProt Q9Z1M0).
T1 construct: mP2X7 (IC50; nM); other: mP2X7; HEK-293 cells stably transfected with P2X7 receptor, Bz-ATP at EC80, Fluo-8 NW; potency
T1 sequence (Q9Z1M0 1-595): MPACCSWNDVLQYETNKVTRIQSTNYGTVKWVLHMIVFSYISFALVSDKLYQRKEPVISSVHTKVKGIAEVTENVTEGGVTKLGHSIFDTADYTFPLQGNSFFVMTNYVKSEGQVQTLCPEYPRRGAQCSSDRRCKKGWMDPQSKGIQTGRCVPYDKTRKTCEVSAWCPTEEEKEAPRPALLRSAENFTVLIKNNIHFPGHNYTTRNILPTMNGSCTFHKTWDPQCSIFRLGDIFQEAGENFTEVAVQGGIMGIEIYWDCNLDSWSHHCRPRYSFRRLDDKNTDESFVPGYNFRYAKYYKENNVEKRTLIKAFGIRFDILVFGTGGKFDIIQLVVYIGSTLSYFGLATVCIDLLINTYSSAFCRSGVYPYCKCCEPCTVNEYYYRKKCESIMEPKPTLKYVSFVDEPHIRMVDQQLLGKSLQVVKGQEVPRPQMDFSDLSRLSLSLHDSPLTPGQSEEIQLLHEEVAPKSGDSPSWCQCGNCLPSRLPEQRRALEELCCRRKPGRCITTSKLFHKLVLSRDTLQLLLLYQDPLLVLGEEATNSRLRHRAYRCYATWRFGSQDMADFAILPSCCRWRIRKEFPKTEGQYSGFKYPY
To be noted: mP2X7; HEK-293 cells stably transfected with P2X7 receptor, Bz-ATP at EC80, Fluo-8 NW; potency ranges A-D. A digest of the protocol:
(§1)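 Compounds were added to Fluo-8-loaded P2X7-transfected HEK-293 cells 5 min before an EC80 Bz-ATP challenge, and Ca2+ influx was then recorded for 3 min. Buffer held 0.3 mM Ca2+ and no Mg2+. Inhibition was normalised to A438079, giving IC50 values.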

Test [2] has as its target T2, P2X7 receptor (Rattus norvegicus, UniProt Q64663).
T2 construct: rP2X7 (IC50; nM); other: rP2X7; HEK-293 cells stably transfected with P2X7 receptor, Bz-ATP at EC80, Fluo-8 NW; potency
T2 sequence (Q64663 1-595): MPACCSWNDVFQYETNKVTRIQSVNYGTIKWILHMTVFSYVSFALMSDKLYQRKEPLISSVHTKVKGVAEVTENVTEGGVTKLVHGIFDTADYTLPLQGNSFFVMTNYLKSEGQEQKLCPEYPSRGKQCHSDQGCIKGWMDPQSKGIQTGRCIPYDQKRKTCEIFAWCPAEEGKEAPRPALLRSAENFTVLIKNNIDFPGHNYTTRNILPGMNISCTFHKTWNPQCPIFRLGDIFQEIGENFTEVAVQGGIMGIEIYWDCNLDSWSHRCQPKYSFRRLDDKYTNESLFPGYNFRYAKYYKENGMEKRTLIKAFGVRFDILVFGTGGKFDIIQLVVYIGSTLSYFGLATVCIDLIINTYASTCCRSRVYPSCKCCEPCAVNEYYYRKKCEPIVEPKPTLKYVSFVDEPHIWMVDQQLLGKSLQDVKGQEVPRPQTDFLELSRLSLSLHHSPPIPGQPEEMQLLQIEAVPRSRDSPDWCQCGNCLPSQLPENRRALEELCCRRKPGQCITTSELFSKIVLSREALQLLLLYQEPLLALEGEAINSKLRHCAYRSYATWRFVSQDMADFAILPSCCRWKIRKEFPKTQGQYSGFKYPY
Conditions: rP2X7; HEK-293 cells stably transfected with P2X7 receptor, Bz-ATP at EC80, Fluo-8 NW; potency ranges A-D. Summed up: as §1

For test [3], the target named is T3, P2X7 receptor (Homo sapiens, UniProt Q99572).
T3 sequence (Q99572 1-595): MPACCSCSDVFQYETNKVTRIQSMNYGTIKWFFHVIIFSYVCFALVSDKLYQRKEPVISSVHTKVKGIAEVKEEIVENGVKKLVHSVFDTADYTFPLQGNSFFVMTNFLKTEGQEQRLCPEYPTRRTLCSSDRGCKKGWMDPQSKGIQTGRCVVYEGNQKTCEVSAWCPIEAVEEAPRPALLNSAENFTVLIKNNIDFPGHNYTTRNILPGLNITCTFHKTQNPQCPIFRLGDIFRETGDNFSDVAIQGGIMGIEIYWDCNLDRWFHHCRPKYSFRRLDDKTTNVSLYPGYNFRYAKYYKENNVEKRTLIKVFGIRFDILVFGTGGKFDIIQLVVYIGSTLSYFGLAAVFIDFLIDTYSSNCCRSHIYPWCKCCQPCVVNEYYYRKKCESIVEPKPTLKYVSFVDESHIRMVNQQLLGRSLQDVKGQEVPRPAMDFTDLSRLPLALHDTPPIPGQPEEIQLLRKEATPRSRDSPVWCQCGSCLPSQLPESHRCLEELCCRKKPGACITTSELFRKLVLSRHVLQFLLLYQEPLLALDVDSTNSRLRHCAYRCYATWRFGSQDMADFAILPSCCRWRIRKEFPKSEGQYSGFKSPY
Also on record: hP2X7 (IC50; nM); other: hP2X7; HEK-293 cells stably transfected with P2X7 receptor, Bz-ATP at EC80, Fluo-8 NW; potency. Conditions: hP2X7; HEK-293 cells stably transfected with P2X7 receptor, Bz-ATP at EC80, Fluo-8 NW; potency ranges A-D. A digest of the protocol: as §1

Bounds are passed on as bounds.

By IC50 is commonly meant the midpoint of a concentration-inhibition curve. On to `O=c1onc(Cc2cccc(C(F)(F)F)c2Cl)n1CC1CCC(F)(F)CC1` [Example 155, 3-{[2-chloro-3-(trifluoromethyl)phenyl]methyl}-4-[(4,4-difluorocyclohexyl)methyl]-4,5-dihydro-1,2,4-oxadiazol-5-one], for which the IC50 in test [1] is 200 to 1000 nM; in test [2], 200 to 1000 nM; in test [3], less than 200 nM.
Regarding `O=c1onc(Cc2cccc(Cl)c2Cl)n1CC1CCC(F)(F)CC1` [Example 156, 3-[(2,3-dichlorophenyl)methyl]-4-[(4,4-difluorocyclohexyl)methyl]-4,5-dihydro-1,2,4-oxadiazol-5-one], the IC50 is 200 to 1000 nM in test [1], less than 200 nM in test [2] and less than 200 nM in test [3].
Regarding `O=c1onc(Cc2ccccc2C(F)(F)F)n1CC1CCC(F)(F)CC1` [Example 157, 4-[(4,4-difluorocyclohexyl)methyl]-3-{[2-(trifluoromethyl)phenyl]methyl}-4,5-dihydro-1,2,4-oxadiazol-5-one], the IC50 in test [1] is 200 to 1000 nM; in test [2], less than 200 nM; in test [3] it was less than 200 nM.
As for `O=c1onc(Cc2ccccc2Cl)n1CC1CCC(F)(F)CC1` [Example 158, 3-[(2-chlorophenyl)methyl]-4-[(4,4-difluorocyclohexyl)methyl]-4,5-dihydro-1,2,4-oxadiazol-5-one], the IC50 was 200 to 1000 nM in test [1], less than 200 nM in test [2] and less than 200 nM in test [3].
In the case of `O=c1onc(Cc2ccc(Cl)cc2Cl)n1CC1CCC(F)(F)CC1` [Example 159, 3-[(2,4-dichlorophenyl)methyl]-4-[(4,4-difluorocyclohexyl)methyl]-4,5-dihydro-1,2,4-oxadiazol-5-one], the figures for the IC50 in test [1], in test [2] and in test [3] were 200 to 1000 nM, less than 200 nM and less than 200 nM, respectively.
In the case of `COc1cccc(Cc2noc(=O)n2CC2CCC(F)(F)CC2)c1` [Example 160, 4-[(4,4-difluorocyclohexyl)methyl]-3-[(3-methoxyphenyl)methyl]-4,5-dihydro-1,2,4-oxadiazol-5-one], the results for the IC50 in test [1], in test [2] and in test [3] were 1000 to 10000 nM, 200 to 1000 nM and 200 to 1000 nM, respectively.
For `O=c1onc(Cc2ccccc2)n1CC1CCC(F)(F)CC1` [Example 161, 3-benzyl-4-[(4,4-difluorocyclohexyl)methyl]-4,5-dihydro-1,2,4-oxadiazol-5-one], the figures for the IC50 in test [1], in test [2] and in test [3] were 1000 to 10000 nM, 200 to 1000 nM and 200 to 1000 nM, respectively.
In the case of `O=c1onc(Cc2ccc(F)cc2Cl)n1CC1CCC(F)(F)CC1` [Example 162, 3-[(2-chloro-4-fluorophenyl)methyl]-4-[(4,4-difluorocyclohexyl)methyl]-4,5-dihydro-1,2,4-oxadiazol-5-one], the IC50 in test [1], in test [2] and in test [3] was greater than 10000 nM in each case.
In the case of `CC(c1ccc(F)cc1)n1c(CC2CCCCC2)noc1=O` (stereo not drawn) [Example 163, 3-(cyclohexylmethyl)-4-[1-(4-fluorophenyl)ethyl]-4,5-dihydro-1,2,4-oxadiazol-5-one], the IC50 in test [1], in test [2] and in test [3] was 1000 to 10000 nM in each case.
In the case of `CC(c1ccc(F)cc1)n1c(CC2CCC(F)(F)CC2)noc1=O` (stereo not drawn) [Example 164, 3-[(4,4-difluorocyclohexyl)methyl]-4-[1-(4-fluorophenyl)ethyl]-4,5-dihydro-1,2,4-oxadiazol-5-one], the 50% inhibitory concentration (IC50) in test [1], in test [2] and in test [3] was 1000 to 10000 nM throughout.
As to `O=c1onc(CC2CCC(F)(F)CC2)n1Cc1ccccc1F` [Example 165, 3-[(4,4-difluorocyclohexyl)methyl]-4-[(2-fluorophenyl)methyl]-4,5-dihydro-1,2,4-oxadiazol-5-one], the values for the IC50 in test [1], in test [2] and in test [3] were 200 to 1000 nM, less than 200 nM and 200 to 1000 nM, respectively.
For the compound `O=c1onc(CC2CCC(F)(F)CC2)n1Cc1ccc(C(F)(F)F)cc1` [Example 166, 3-[(4,4-difluorocyclohexyl)methyl]-4-{[4-(trifluoromethyl)phenyl]methyl}-4,5-dihydro-1,2,4-oxadiazol-5-one], the IC50 in test [1], in test [2] and in test [3] was 1000 to 10000 nM each time.
On to `O=c1onc(CC2CCC(F)(F)CC2)n1Cc1cccc(C(F)(F)F)c1Cl` [Example 167, 4-{[2-chloro-3-(trifluoromethyl)phenyl]methyl}-3-[(4,4-dffluorocyclohexyl)methyl]-4,5-dihydro-1,2,4-oxadiazol-5-one], for which the IC50 is 1000 to 10000 nM in test [1], 1000 to 10000 nM in test [2] and greater than 10000 nM in test [3].
With `O=c1onc(CC2CCC(F)(F)CC2)n1Cc1ccc(C(F)(F)F)o1` [Example 168, 3-[(4,4-difluorocyclohexyl)methyl]-4-{[5-(trifluoromethyl)furan-2-yl]methyl}-4,5-dihydro-1,2,4-oxadiazol-5-one], the values for the IC50 in test [1], in test [2] and in test [3] were 200 to 1000 nM, 200 to 1000 nM and 1000 to 10000 nM, respectively.
On to `Cc1cc(Cn2c(CC3CCC(F)(F)CC3)noc2=O)no1` [Example 169, 3-[(4,4-difluorocyclohexyl)methyl]-4-[(5-methyl-1,2-oxazol-3-yl)methyl]-4,5-dihydro-1,2,4-oxadiazol-5-one], for which the IC50 in test [1] is greater than 10000 nM; in test [2], 1000 to 10000 nM; in test [3], greater than 10000 nM.
With `O=c1onc(CC2CCC(F)(F)CC2)n1Cc1ccccc1Cl` [Example 170, 4-[(2-chlorophenyl)methyl]-3-[(4,4-difluorocyclohexyl)methyl]-4,5-dihydro-1,2,4-oxadiazol-5-one], the figures for the IC50 in test [1], in test [2] and in test [3] were 200 to 1000 nM, less than 200 nM and less than 200 nM, respectively.
With `Cc1cc(F)ccc1Cn1c(CC2CCC(F)(F)CC2)noc1=O` [Example 171, 3-[(4,4-difluorocyclohexyl)methyl]-4-[(4-fluoro-2-methylphenyl)methyl]-4,5-dihydro-1,2,4-oxadiazol-5-one], the IC50 in test [1] lay within 1000 to 10000 nM; in test [2] it was 200 to 1000 nM; in test [3], 1000 to 10000 nM.
On to `O=c1onc(CC2CCC(F)(F)CC2)n1CCc1ccccc1` [Example 172, 3-[(4,4-difluorocyclohexyl)methyl]-4-(2-phenylethyl)-4,5-dihydro-1,2,4-oxadiazol-5-one], for which the IC50 was greater than 10000 nM in test [1], 1000 to 10000 nM in test [2] and greater than 10000 nM in test [3].
